# Where two headings read alike, the source gives them in different places.
# What was measured:
# [1] = Stilbenoid levels in batch culture of solvent-adapted PALCPR, dodecane/octylacetate two-phase vs control (HPLC); set-up: species or system S. cerevisiae; settings: for Upper phase (0.3 L) % total: 200 ml dodecane + 100 ml octylacetate on 1 L medium; for Lower phase (1 L) % total: aqueous medium phase, dodecane/octylacetate
# Procedure: (§1) A Phenomenex (Torrance, Calif., USA) Luna 3 micrometer C18 (100×2.00 mm) column was used at 60° C. As mobile phase a gradient of acetonitrile and milliq water (both containing 50 ppm trifluoroacetic acid) was used at a flow of 0.4 ml/min. The gradient profile was linear from 15% acetonitrile to 100% acetonitrile over 20 min.
# [2] = Stilbenoid levels in two-phase batch culture of evolved PALCPR (PALCPR-evolved-I) with octylacetate (HPLC); set-up: species or system S. cerevisiae; settings: for Upper phase (0.1 L) % total: 100 ml octylacetate on 1 L medium; for Lower phase (1 L) % total: aqueous phase, octylacetate
# Procedure: as §1
# (§2) For that, cells of the culture described in the previous example were harvested during mid-exponential-phase and stored at −80° C. in 15% glycerol and subsequently a fermentor, containing the same medium as described in the previous example with 10 g/l glucose and 100 g/l galactose, was then inoculated with cells of said PALCPR-solvent culture. The cells were allowed to fully consume the glucose at a stirring speed of 1000 rpm with an average dissolved oxygen content of above 70% of saturated air. At the onset of galactose consumption, the stirring rate was turned down to 300 rpm, after which slowly 100 ml of octylacetate was added.
# (§3) For the determination of stilbenoids, an aliquot of 25 ml of cell broth was collected, and phase separation was initiated by centrifugation at 3500 g for 5 minutes. Both the upper octylacetate phase and the lower aquous medium phase were collected separately with a pipet and directly analyzed for their content of stilbenoids and intermediates by HPLC.
# [3] = Stilbenoid levels in two-phase batch culture of PALCPR-evolved-II with octylacetate (HPLC); set-up: species or system S. cerevisiae; settings: for Upper phase (0.1 L) % total: 100 ml octylacetate from start; for Lower phase (1 L) % total: aqueous phase, octylacetate
# Procedure: as §1
# However, the medium now only contained 100 g/l galactose and did contain 100 ml of octylacetate from the beginning of the fermentation. In addition, the stirrer speed was instantly set at 800 rpm. […] The strain is referred to as PALCPR-evolved-II.
# as §3
# [4] = Stilbenoid levels in two-phase batch culture of PALCPR-evolved-III with octylacetate (HPLC); set-up: species or system S. cerevisiae; settings: for Upper phase (0.1 L) % total: 100 ml octylacetate from start; for Lower phase (1 L) % total: aqueous phase, octylacetate
# Procedure: as §1
# The stirrer speed was instantly set at 800 rpm. […] The strain is referred to as PALCPR-evolved-III.
# as §3
# [5] = Stilbenoid levels in batch culture of PALCPR-evolved-III with nonyl-acetate vs control (HPLC); set-up: species or system S. cerevisiae; settings: for Upper phase (0.1 L) % total: PALCPR-solvent (PALCPR-evolved-III), 100 ml nonyl-acetate
# Procedure: as §1
# The stirrer speed was instantly set at 800 rpm. […] The cultivation will be referred to as PALCPR-solvent. […] The cultivation will be referred to as PALCPR-control.
# as §3, with “nonylacetate” for “octylacetate”, “aqueous” for “aquous”, “pipette” for “pipet”
# [6] = Stilbenoid levels in batch culture of non-evolved FS09229 with nonyl-acetate vs control (HPLC); set-up: species or system S. cerevisiae; settings: FS09229-solvent; for Upper phase (0.1 L) % total: 100 ml nonyl-acetate; for Lower phase (1 L) % total: aqueous phase, nonyl-acetate
# Procedure: as §1
# The non-evolved FS09229 strain described in previous examples was grown in the presence of nonyl-acetate. […] The stirrer speed was instantly set at 800 rpm. […] The cultivation will be referred to as FS09229-solvent. […] The cultivation will be referred to as FS09229-control.
# as §3, with “nonylacetate” for “octylacetate”, “aqueous” for “aquous”, “pipette” for “pipet”
# [7] = test system: Escherichia coli strain FS06112; test: Glycerol consumption of FS06112 shakeflask cultures in the presence of extraction solvent; assay type: cell-based
# Procedure: (§4) A glycerol stock of strain FS06112 was used to inoculate 500 ml baffled shake flasks that contained 100 ml modified M9 medium consisting of 4.5 g/l glycerol, 1.5 g/l yeast extract, 3 g/l K2HPO4, 6.8 g/l Na2HPO4, 0.5 g/l NaCl, 1 g/l NH4C, 50 μg/ml ampicillin and 50 μg/ml kanamycin; the initial pH was set at 7.0. The shakeflasks were incubated at ambient temperature, and were mixed with a magnetic stirring bar at approximately 150 rpm. After 5 hours, isopropyl β-thiogalactopyranoside (IPTG) was added at a final concentration of 4 mM, as an inducer of the T7 promoter that was in front of each of the three genes TAL, 4CL and VST. After one hour an aliquot of 10 ml of the solvent octyl acetate was added to one shakeflask that is now referred to as FS06112-solvent; the shakeflask culture without solvent will be referred to as FS06112-control.
# as §4, with “β-thiogalactopyranoside(IPTG)” for “β-thiogalactopyranoside (IPTG)”, “methyl decanoate” for “octyl acetate”
# A glycerol stock of strain FS06112 was used to inoculate 500 ml baffled shake flasks that contained 100 ml modified M9 medium consisting of 4.5 g/l glycerol, 1.5 g/l yeast extract, 3 g/l K2HPO4, 6.8 g/l Na2HPO4, 0.5 g/l NaCl, 1 g/l NH4C, 50 μg/ml ampicillin and 50 μg/ml kanamycin; the initial pH was set at 7.0. […]
# [8] = test system: S. cerevisiae strain PALCPR; test: Growth of evolved PALCPR strains in the presence of extraction solvent (CO2 production); assay type: cell-based
# Procedure: as §2, with “The cells of the PALCPR-solvent culture described in the previous example were taken as starting point because the presence of the solvent mixture would possibly have already evoked adaptation of cells to solvents. For” for “For”
# Galactose consumption indeed commenced again. A small arrest in CO2 production again occurred after 20 hours which, however, recovered after 5 hours, after which the cells grew exponentially with concomitant production of CO2, consumption of galactose within less than 40 hours. Based upon the CO2 production the specific growth rate was estimated to be 0.062 1/h (FIG. 2). The final biomass concentration was 21.6 g/l.
# In order to further improve said strain in terms of length of lag-phase and growth rate, a 25 ml aliquot of the exponentional growing PALCPR-evolved-I strain was used to inoculate a fermentor, containing a similar medium as described in the previous example. However, the medium now only contained 100 g/l galactose and did contain 100 ml of octylacetate from the beginning of the fermentation. In addition, the stirrer speed was instantly set at 800 rpm. Upon inoculation of the fermentor, consumption of galactose only commenced after approximately 40 hours, indicated by a slow increase in CO2 signal, a decrease in dissolved oxygen and addition of base. Indeed the cells continued to grow exponentially with concomitant production of CO2, and consumed the galactose within less than 90 hours. Based upon the CO2 production the specific growth rate was estimated to be 0.041 1/h (FIG. 3). The final biomass concentration was 21.5 g/l. The strain is referred to as PALCPR-evolved-II.
# Therefore, to further improve said strain in terms of both length of lag-phase and growth rate, a 50 ml aliquot of the exponentional growing PALCPR-evolved-II strain was used to inoculate a fermentor, containing a similar medium as described in the previous example (thus containing 100 g/l galactose 100 ml of octylacetate from the beginning of the fermentation). The stirrer speed was instantly set at 800 rpm. Upon inoculation of the fermentor, consumption of galactose already commenced after less then 20 hours, indicated by a slow increase in CO2 signal, a decrease in dissolved oxygen and addition of base. Indeed the cells further grew exponentially with concomitant production of CO2, and now consumed the galactose within approximately 50 hours. Based upon the CO2 production the specific growth rate was estimated to be 0.091 1/h (FIG. 4). The final biomass concentration was 18.9 g/l. The strain is referred to as PALCPR-evolved-III.
# The evolved PALCPR-evolved-III strain described in the previous example was grown in the presence of nonyl-acetate, a similar solvent as octylacetate with one additional carbon atom. A 1 ml aliquot of a glycerol stock that was made from an exponentional growing PALCPR-evolved-III strain was used to inoculate a fermentor, containing a similar medium as described in the previous example, containing only 100 g/l galactose and 100 ml of nonyl-acetate from the beginning of the fermentation. The stirrer speed was instantly set at 800 rpm. Upon inoculation of the fermentor, consumption of galactose only commenced after approximately 70 hours, indicated by a slow increase in CO2 signal, a decrease in dissolved oxygen and addition of base. […]
# [9] = partition coefficient between water and octanol; cited from earlier work
# [10] = PALCPR-evolved-II, 100 ml solvent from start, 800 rpm
# [11] = PALCPR-evolved-III, 100 ml solvent from start, 800 rpm, fresh inoculum
Compound,Upper phase (0.3 L) % total [1] [% total],Lower phase (1 L) % total [1] [% total],Upper phase (0.1 L) % total [2] [% total],Lower phase (1 L) % total [2],Upper phase (0.1 L) % total [3] [% total],Lower phase (1 L) % total [3],Upper phase (0.1 L) % total [4] [% total],Lower phase (1 L) % total [4] [% total],Upper phase (0.1 L) % total [6] [% total],Lower phase (1 L) % total [6],logP [9],further results
"O=C(O)C=Cc1ccccc1 [Cinnamic acid, cinnamic acid]",56.9,43.1,52.5,47.5 % total,88.6,11.4 % total,71.3,28.7,42.2,57.8 % total,,"Upper phase (0.1 L) % total [5]: 29.6 % total; Upper phase (0.1 L) % total ([5]; listed as cinnamic acid): 25 % total; Lower phase (1 L) % total ([5]; PALCPR-solvent, aqueous phase, nonyl-acetate): 70.4 % total; Upper phase (0.1 L) % total ([6]; listed as cinnamic acid): 42 % total"
"Oc1cc(O)cc(/C=C/c2ccccc2)c1 [Pinosylvin, pinosylvin]",95.2,4.8,100,0; 0 % total,100,0; 0 % total,90.3,9.7,100,0.0; 0.0 % total,,Upper phase (0.3 L) % total ([1]; listed as pinosylvin): 95 % total; Upper phase (0.1 L) % total ([4]; listed as pinosylvin): 100 % total
CCCCCCCCCC(C)=O [undecanone],,,,,,,,,,,,"time in which the glycerol was consumed ([7]; FS06112-solvent, 10 ml solvent on 100 ml medium, control 30 hours): ≤ 48 h"
CCCCCCCCOC(C)=O [n-octyl acetate],,,,,,,,,,,3.7,"lag-phase until galactose consumption commenced [8, 10]: approximately 40 hours; specific growth rate [8, 10]: 0.041 h⁻¹; lag-phase until galactose consumption commenced [8, 11]: < 20 h; specific growth rate [8, 11]: 0.091 h⁻¹; time until cells started to grow after solvent addition (lag-phase) ([8]; cells from PALCPR-solvent culture (PALCPR-evolved-I), 100 ml solvent added to 1 L): approximately 170 hours; specific growth rate ([8]; cells from PALCPR-solvent culture (PALCPR-evolved-I), 100 ml solvent added to 1 L at onset of galactose consumption): 0.062 h⁻¹; time in which 2.5 g/l of glycerol was consumed [7]: ≤ 24 h"
CCCCCCCCCC(=O)OC [methyl decanoate],,,,,,,,,,,4.3,time in which the glycerol was consumed [7]: ≤ 48 h
"O=C(O)/C=C/c1ccc(O)cc1 [Coumaric acid, 4-coumaric acid]",,,18.0,82.0 % total,59.3,40.7 % total,40.0,60.0,,,,

# — patent US8518677B2, “Microbial bioreaction process” (Evolva Sa, priority 2007, dated 2013)
